Experimental data reported in patent publication EP0211584A1, “Antihypertensive agents” (AMERICAN HOME PRODUCTS CORPORATION, priority 1985, dated 1987).
Read-outs that look alike come from different tables or passages of the source.

Legend:
[1] = system: rabbit aortic smooth muscle; assay: Ca+2 antagonism: relaxation of KCl-depolarized rabbit aortic smooth muscle strips; conditions: 20 min; for inhibition at 10 µM: Oryctolagus cuniculus, read-out: P.R. (percent relaxation of aortic tissue)
Description: The composition of PSS was as follows (mM): NaCl 112,KCI 5, NaHCO3 25 KH2PO4 1, MgSO4 1.2, CaCl2 2.5, dextrose 10. The lower end of each tissue strip was attached to a fixed post and the upper end to a Statham UC-4 transducer. Changes in force development were recorded on a Beckman Dynograph Polygraphic Recorder.
Following equilibration, the muscles were contracted in a depolarizing solution of PSS in which 100mM KCI was substituted for an equimolar concentration of NaCI. Following attainment of steady- state isometric force (20 min.), the test compound was added to afford a final concentration of 1 x 10^-5M. The inhibitory effect, expressed as percent relaxation, was determined from the mean of two experiments twenty minutes after the addition of the compound being tested.
(§1) The following examples illustrate the preparation of a representative number of compounds of this invention. After each example, the Ca+2 antagonist activity of the compound is presented in terms of percent relaxation of aortic tissue (P.R.) at 10-^5M concentration. […] Inhibition of super- precipitation (Antag. of Actin-Myosin interaction) is expressed as percent inhibition (mean ± standard error of the mean for at least 3 separate experiments) at a compound concentration. In the same manner, inhibition of myosin light chain phosphorylation (Antag. of MLCP) is expressed as a percent inhibition at a compound concentration. Similarly, the antihypertensive activity is reported in terms of millimetres mercury (mmHg) systolic blood pressure (B.P.) reduction at the stated time post 50 mg/kg oral dosing or other dosing as indicated.

[2] = system: spontaneously hypertensive rats; assay: Hypotensive effect: systolic blood pressure of spontaneously hypertensive rats; format: in vivo; conditions: mmHg per method
Description: The hypotensive in vivo effect of the compounds of this invention was determined by measuring changes in the systolic blood pressure of spontaneously hypertensive rats with a Decker Caudal Plethysmograph. The compound being tested was administered to a group of 4 rats and their systolic pressure was determined prior to and at 1.5 and 4 hours after compound administration. Initial testing was done by oral administration of the compound. Results (mmHg) are expressed as decreases in systolic blood pressure.
as §1

[3] = system: arterial actin-myosin interactions; assay: Inhibition of superprecipitation (antagonism of actin-myosin interaction), Silver et al.; format: biochemical; conditions: six minute time-point
Description: . The data reported herein was obtained at a six minute time-point rather than the 1.5, 5 and 12 minute time points indicated in the superprecipita- tion assay of the Silver et al paper.
as §1

[4] = target: Ca^+2-calmodulin dependent myosin light chain phosphorylation (Bos taurus, UniProt Q28824); assay: Inhibition of myosin light chain phosphorylation (MLCP), Silver et al.; format: biochemical; conditions: read-out: Antag. of MLCP (percent inhibition of myosin light chain phosphorylation)
Description: The data reported herein was obtained at a six minute time-point rather than the 1.5, 5 and 12 minute time points indicated in the superprecipita- tion assay of the Silver et al paper.
as §1

[5] = system: isolated paced intact rabbit atria; assay: Cardiac depressant (negative inotropic) effect in isolated paced rabbit atria; conditions: Oryctolagus cuniculus; for IC25: read-out: IC25 (concentration which produces 25% inhibition of isometric force)
Description: The potential for detrimental cardiac depressant (negative inotropic) effects of the compounds of this invention was assessed in isolated paced intact rabbit atria. […] Muscles (N=5-9/compound) were stimulated at a frequency of 3Hz with a WPI stimulator for a 60 minute equilibration period. Changes in isometric force were recorded as described for the aortic smooth muscle experiments, supra. […]

[6] = dose 50mg/kg oral, at 1.5 hours, 50 mg/kg
[7] = dose 50mg/kg oral, at 4 hours, 50 mg/kg
[8] = compound 1 x 10^-5M, 100mM KCl contraction, 20 minutes after addition, mean of two experiments
[9] = dose 50mg/kg oral, at 1.5 hours
[10] = dose 25mg/kg oral, at 1.5 hours
[11] = rabbit atria paced at 3Hz, 30°C, cumulative dosing

| inhibition at 100 µM [4] [%] | inhibition at 50 µM [4] [%] | SMILES | Antag. of Actin-Myosin (percent inhibition of superprecipitation) ([3]; 50µM) [%] | Antag. of Actin-Myosin (percent inhibition of superprecipitation) ([3]; 100µM) [%] | inhibition at 10 µM [1, 8] [%] | also measured |
| --- | --- | --- | --- | --- | --- | --- |
| – | – | CO[C@H](COC(=O)C1=C(C)NC2=C(C(=O)CNC2)C1c1c(F)c(F)c(F)c(F)c1F)c1ccccc1 (single isomer, unassigned) [Example 8 Diastereomer B, 1,4,5,6,7,8-Hexahydro-2-methyl-5-oxo-4-(R or S-pentafluorophenyl)-1,7-naphthyridine-3-carboxylic acid(S)-2-methoxy-2-phenylethyl esters] | 30 | 64 | – | P.R. (percent relaxation of aortic tissue) ([1]; 10^-5M, Note: Muscles were pre-treated, 10 µM): 53%; B.P. (systolic blood pressure reduction) [2, 6]: -28 mm; B.P. (systolic blood pressure reduction) [2, 7]: -67 mm |
| 44 | – | COC(COC(=O)C1=C(C)NC2=C(C(=O)CNC2)C1c1c(F)cccc1Cl)c1ccccc1 (stereo not shown) [Example 9, 4-(2-Chloro-6-fluoroohenyl)-1,4,5,6,7,8-hexahydro-2-methyl-5-oxo-1,7-naphthyridine-3-carboxylic acid 2-methoxy-2-phenylethyl ester] | – | 40 | 28 | B.P. (systolic blood pressure reduction) [2, 9]: -37 mm; B.P. (systolic blood pressure reduction) ([2]; dose 50mg/kg oral, at 4 hours): -14 mm |
| – | – | COC(=O)C1=C(C)NC(C)=C(C(=O)OC)C1c1ccccc1[N+](=O)[O-] [nifedipine, reference compound] | – | – | – | IC25 [5]: 0.05 µM |
| 28 | – | CC1=C(C(=O)OCCOc2ccccc2)C(c2c(F)ccc(F)c2F)C2=C(CNCC2=O)N1 (stereo not shown) [Example 16, 1,4,5,6,7,8-Hexahydro-2-methyl-5-oxo-4-(2,3,6-trifluorophenyl)-1,7-naphthyridine-3-carboxylic acid 2-phenoxyethyl ester] | – | 34 | 63 | B.P. (systolic blood pressure reduction) [2, 10]: -37 mm |
| 62 | – | CC1=C(C(=O)OCC(C)(C)Oc2ccccc2)C(c2c(F)c(F)c(F)c(F)c2F)C2=C(CNCC2=O)N1 (stereo not shown) [Example 20, 1,4,5,6,7,8-Hexahydro-2-methyl-5-oxo-4-(pentafluorophenyl)-1,7-naphthyridine-3-carboxylic acid 2-methyl-2-phenoxypropyl ester] | – | 67 | 51 | B.P. (systolic blood pressure reduction) [2, 10]: -64 mm |
| 48 | – | COC(COC(=O)C1=C(C)NC2=C(C(=O)CNC2)C1c1cccc(Cl)c1)c1ccccc1 (stereo not shown) [Example 11, 4-(3-Chloroahenyl)-1,4,5,6,7,8-hexahydro-2-methyl-5-oxo-1,7--naphthyridine-3-carboxylic acid. 2-methoxv-2-phenvlethvl ester] | – | 53 | 31 | B.P. (systolic blood pressure reduction) [2, 9]: -29 mm |
| 68 ± 1 | 50 ± 2 | CC1=C(C(=O)OCCOc2ccccc2)C(c2c(F)ccc(Cl)c2Cl)C2=C(CNCC2=O)N1 (stereo not shown) [Example 24, 4-(2,3-Dichloro-6-fluorophenyl)-1,4,5,6,7,8-hexahydro-2-methyl-5-oxo-1,7-naphthyridine-3-carboxylic acid 2-phenoxyethyl ester] | 54±3 | 72±1 | 65 | IC25 [5, 11]: 10 µM; Antag. of Actin-Myosin (percent inhibition of superprecipitation) ([3]; 25µM): 9±2%; inhibition at 25 µM [4]: 8 ± 2% |
| – | – | CCOC(=O)C1=C(C)NC(C)=C(C(=O)OC)C1c1cccc([N+](=O)[O-])c1 (stereo not shown) [nitrendipine, reference compound] | – | – | – | IC25 [5, 11]: 0.35 µM |
| 56 | 18 | CC1=C(C(=O)OCCOc2ccccc2)C(c2c(F)ccc(C)c2Cl)C2=C(CNCC2=O)N1 (stereo not shown) [Example 23, 4-(2-chloro-6-fluoro-3-methylphenyl)-1,4,5,6,7,8-hexahydro-2-methyl-5-oxo-1,7-naphthyridine-3-carboxylic acid 2-phenoxyethyl ester] | 23 | 62 | 67 | B.P. (systolic blood pressure reduction) [2, 10]: -22 mm; B.P. (systolic blood pressure reduction) ([2]; dose 25mg/kg oral, at 4 hours): -31 mm |
| – | – | NCCCCCCNS(=O)(=O)c1cccc2c(Cl)cccc12 [Example W-7, reference compound] | – | – | – | inhibition at 10 µM ([5]; read-out: inhibition of isometric force): < 20% |
| 63 | 28 | CO[C@H](COC(=O)C1=C(C)NC2=C(C(=O)CNC2)C1c1c(F)c(F)c(F)c(F)c1F)c1ccccc1 (single isomer, unassigned) [Example 8 Diastereomer A, 1,4,5,6,7,8-Hexahydro-2-methyl-5-oxo-4-(R or S-pentafluorophenyl)-1,7-naphthyridine-3-carboxylic acid(S)-2-methoxy-2-phenylethyl esters] | 28 | 69 | – | inhibition at 10 µM ([1]; 10^-5M, Note: Muscles were pre-treated): 50%; B.P. (systolic blood pressure reduction) [2, 6]: -73 mm; B.P. (systolic blood pressure reduction) [2, 7]: -86 mm |
| 74 ± 2 | 73 ± 1.5 | CC1=C(C(=O)OCCOc2cccc(Cl)c2Cl)C(c2c(F)c(F)c(F)c(F)c2F)C2=C(CNCC2=O)N1 (stereo not shown) [Example 22, 1,4,5,6,7,8-Hexahydro-2-methyl-5-oxo-4-(pentafluorophenyl)-1,7-naphthyridine-3-carboxylic acid 2-(2,3-dichlorphenoxy)ethyl ester] | 75±4 | 78±1 | 61 | B.P. (systolic blood pressure reduction) [2, 10]: -37 mm; B.P. (systolic blood pressure reduction) ([2]; dose 25mg/kg oral, at 4 hours): -52 mm; Antag. of Actin-Myosin (percent inhibition of superprecipitation) ([3]; 10µM): 30±3%; Antag. of Actin-Myosin (percent inhibition of superprecipitation) ([3]; 25µM): 54±3%; inhibition at 10 µM ([4]; 10µM): 25%; inhibition at 25 µM [4]: 54 ± 2.5% |
| 70 ± 3 | 48 ± 2 | COC(COC(=O)C1=C(C)NC2=C(C(=O)CNC2)C1c1c(F)c(F)c(F)c(F)c1F)c1ccccc1 (stereo not shown) [Example 5, 1,4,5,6,7,8-Hexahydro-2-methyl-5-oxo-4-(pentafluorophenyl)-1,7-naphthyridine-3-carboxylic acid 2-methoxy-2-phenylethyl ester] | 50±5 | 75±4 | 71 | IC25 [5, 11]: 10 µM; Antag. of Actin-Myosin (percent inhibition of superprecipitation) ([3]; 25µM): 20±5%; inhibition at 25 µM [4]: 21 ± 3% |
| – | – | COc1ccc(CCN(C)CCCC(C#N)(c2ccc(OC)c(OC)c2)C(C)C)cc1OC (stereo not shown) [Verapamil, reference compound] | – | – | – | IC25 [5]: 0.06 µM |
| 67 | 37 | CC1=C(C(=O)OCCOc2ccccc2)C(c2c(F)c(F)c(F)c(F)c2F)C2=C(CNCC2=O)N1 (single isomer, unassigned) [Example 4, (+ )-1,4,5,6,7,8-Hexahydro-2-methyl-5-oxo-4-(pentafluorophenyl)-1,7-naphthyridine-3-carboxylic acid 2-phenoxyethyl ester] | 38 | 71 | 61 | IC25 [5, 11]: 0.8 µM |
